From the Deep4Chem optical property database come the findings set out here.

The nature of this data set: photoluminescence quantum yield (fraction); solvent given as SMILES.

Consider `N#CC1=C(c2ccc(-c3cccs3)s2)CCC1`, for which the photoluminescence quantum yield (in CCO) is 0.04.
Where the note is “in ClC(Cl)Cl”, `F[B-]1(F)n2cccc2C(c2ccccc2)=C2C=CC(c3ccc(OC4=[N+]5C(=C(c6ccccc6)c6cc(Br)c(Br)n6[B-]5(F)F)C=C4Br)cc3)=[N+]21` registered a photoluminescence quantum yield of 0.01.
As to `Cc1ccc(N/C=C/C=[NH+]c2ccc(C)cc2)cc1`, the photoluminescence quantum yield (in CS(C)=O) is 0.14.
Compound `C(#Cc1ccc2ncsc2c1)c1ccc(N(c2ccc(C#Cc3ccc4ncsc4c3)cc2)c2ccc(C#Cc3ccc4ncsc4c3)cc2)cc1` registered a photoluminescence quantum yield (in Cc1ccccc1) of 0.53.
For the setting “in ClCCl”, `c1ccc2c(c1)ccc1ccc3c(c12)-c1c(ccc2ccc4ccccc4c12)C3` displayed a photoluminescence quantum yield of 0.39.
Regarding `Cc1cc(C)c(C2=C3C=C(c4ccc(C(C)(C)C)cc4)C(c4ccc(C(C)(C)C)cc4)=[N+]3[B-](F)(F)n3c2cc(-c2ccc(C(C)(C)C)cc2)c3-c2ccc(C(C)(C)C)cc2)c(C)c1`, the photoluminescence quantum yield by setting is: (in C1CCCCC1) 0.77; (in C1CCOC1) 0.96; (in CC#N) 0.62; (in Cc1ccccc1) 0.78; (in ClCCl) 0.74.
For `Cc1cc(C(F)(F)F)nc2c1ccc1nc(-c3ccc(Cl)cc3)cn12`, the photoluminescence quantum yield worked out at 0.84 (in CC#N); 0.76 (in CCCCOC(C)=O); 0.9 (in CCOC(C)=O); 0.78 (in CO); 0.64 (in ClC(Cl)Cl); 0.88 (in c1ccccc1).
For the setting “in CCCCCC”, `CC(C)[Si](C#Cc1c2cc3ccccc3cc2c(C#C[Si](C(C)C)(C(C)C)C(C)C)c2nc3c(ccc4cc5ccccc5cc43)nc12)(C(C)C)C(C)C` came in with a photoluminescence quantum yield of 0.26.
`CCOC(=O)COc1ccc(/C=C/C2=C3C(C)=CC(/C=C/c4ccc(OCC(=O)OCC)cc4)=[N+]3[B-](F)(F)n3c2c2ccccc2c3-c2[nH]c(C)cc2C)cc1`: where the note is “in ClCCl”, the photoluminescence quantum yield is 0.01.
In the case of `CCCCNc1nn(-c2ccc(OC)cc2)nc1C#N`, for the setting “in CC#N”, the photoluminescence quantum yield is 0.918.
`Brc1cc2nc3cc4c5c(cccc5c3nc2cc1Br)C(c1ccccc1)=C(c1ccccc1)O4` gave a photoluminescence quantum yield (in ClCCl) of 0.12.
In the case of `CCCCCCOc1ccc(N(c2ccc(OCCCCCC)cc2)c2ccc(-c3sc(-c4ccc(N(c5ccc(OCCCCCC)cc5)c5ccc(OCCCCCC)cc5)cc4)c4nc(CC)c(CC)nc34)cc2)cc1`, the photoluminescence quantum yield was found to be 0.0205 (in CN(C)C=O) and 0.0225 (in ClC(Cl)Cl).
In the case of `O=[N+]([O-])c1ccc([N+]2=Cc3ccc4c5c(ccc4c3O[B-]2(c2c(F)c(F)c(F)c(F)c2F)c2c(F)c(F)c(F)c(F)c2F)C=[N+](c2ccc([N+](=O)[O-])cc2)[B-](c2c(F)c(F)c(F)c(F)c2F)(c2c(F)c(F)c(F)c(F)c2F)O5)cc1`, the photoluminescence quantum yield by setting is: (in Cc1ccccc1) 0.83; (in ClCCl) 0.66.
For `C(#Cc1ccc(-n2c3ccccc3c3ccccc32)cc1)c1ccc(-c2nc(-c3ccc(C#Cc4ccc(-n5c6ccccc6c6ccccc65)cc4)cc3)nc(-c3ccc(C#Cc4ccc(-n5c6ccccc6c6ccccc65)cc4)cc3)n2)cc1`, the photoluminescence quantum yield (in C1CCOC1) was 0.69; the photoluminescence quantum yield (in CC#N) stood at 0.02; the photoluminescence quantum yield (in CCCCCC) came to 0.94; the photoluminescence quantum yield (in Cc1ccccc1) was determined as 1; the photoluminescence quantum yield (in ClCCl) came to 0.67.
Consider `CCCCCC(CC)C1(C(CC)CCCCC)c2ccccc2-c2ccc(C#Cc3cc(C#Cc4ccc5c(c4)C(C(CC)CCCCC)(C(CC)CCCCC)c4ccccc4-5)c4ccc5c(C#Cc6ccc7c(c6)C(C(CC)CCCCC)(C(CC)CCCCC)c6ccccc6-7)cc(C#Cc6ccc7c(c6)C(C(CC)CCCCC)(C(CC)CCCCC)c6ccccc6-7)c6ccc3c4c65)cc21` (stereo unspecified), for which the photoluminescence quantum yield (in Cc1ccccc1) is 0.67.
As for `c1csc(-c2ccc3c4ccc(-c5cccs5)cc4n(-c4cccs4)c3c2)c1`, the photoluminescence quantum yield (in ClCCl) was 0.21.
Regarding `O=C1NC(=O)c2c1c1c3ccccc3[nH]c1c1[nH]c3ccccc3c21`, the photoluminescence quantum yield (in C1CCOC1) came to 0.44; the photoluminescence quantum yield (in CC#N) was found to be 0.33; the photoluminescence quantum yield (in CC(C)OC(C)C) is 0.25; the photoluminescence quantum yield (in CCCCOCCCC) worked out at 0.28; the photoluminescence quantum yield (in CCO) is 0.26; the photoluminescence quantum yield (in CCOC(C)=O) is 0.29. For the same compound, the photoluminescence quantum yield (in CN(C)C=O) stood at 0.25 and the photoluminescence quantum yield (in ClCCl) worked out at 0.18.
`O=C1c2cc(-n3c4ccccc4c4ccccc43)ccc2S(=O)(=O)c2ccc(-n3c4ccccc4c4ccccc43)cc21` gave a photoluminescence quantum yield (in c1cc(-c2cccc(-n3c4ccccc4c4ccccc43)c2)cc(-n2c3ccccc3c3ccccc32)c1) of 0.348.
For `Cc1cc(=O)oc2c1cc(Br)c1occ(C)c12`, the photoluminescence quantum yield runs as follows: (in C1CCCCC1) 0.0006; (in C1COCCO1) 0.001; (in CC#N) 0.002; (in CCO) 0.004; (in OCC(F)(F)F) 0.004.
With `CCCCn1c(-c2ccc(-c3nnc(-c4cccs4)o3)cc2)nc(-c2ccccc2)c1-c1ccccc1`, the photoluminescence quantum yield (in ClCCl) amounted to 0.33.
Consider `CCOc1cc2c(cc1/C=C/C1=CC(=C(C#N)C#N)CC(C)(C)C1)c1ccccc1n2CC`, for which the photoluminescence quantum yield reads like this: (in C1CCOC1) 0.021; (in CC#N) 0.018; (in CCO) 0.025; (in CCOC(C)=O) 0.026; (in CN(C)C=O) 0.035; (in CS(C)=O) 0.05. Besides, the photoluminescence quantum yield by setting is: (in Cc1ccccc1) 0.008; (in ClC(Cl)Cl) 0.017; (in ClCCl) 0.028.
Compound `CN(c1ccccc1)c1ccc(/C=C/c2ccccc2)cc1` yielded a photoluminescence quantum yield (in CC#N) of 0.31 and a photoluminescence quantum yield (in CCCCCC) of 0.64.
`CC1(C)C(/C=C/c2cc3ccc(O)cc3oc2=O)=[N+](CCCS(=O)(=O)[O-])c2ccc3c(S(=O)(=O)O)cc(S(=O)(=O)O)cc3c21`: the photoluminescence quantum yield runs as follows: (in CCO) 0.014; (in CS(C)=O) 0.025; (in O) 0.027.
For the compound `CC1=CC(C)=[N+]2C1=Cc1c3ccccc3c(-c3[nH]c(C)cc3C)n1[B-]2(F)F`, the photoluminescence quantum yield (in ClCCl) stood at 0.61.
Still for that read-out and setting: to `COC(=O)C1=C(C(=O)OC)C2(c3ccccc3-c3c(C(=O)OC)cccc32)[C@@H](c2ccc(Cl)cc2)C=C2c3cc(OC)c(OC)cc3CCN21` (stereo partly specified) belongs 0.00593.
For the compound `CCCCCCCCC1(CCCCCCCC)c2cc(-c3ccc(C(=O)OC)cc3)ccc2-c2ccc(-c3ccc(C(=O)OC)cc3)cc21`, for the setting “in ClC(Cl)Cl”, the photoluminescence quantum yield is 0.94.
Under “in ClCCl”, `O=S1(=O)c2ccc(-c3ccc(N(c4ccccc4)c4ccccc4)cc3)cc2C2(c3ccccc3-c3ccccc32)c2cc(-c3ccc(N(c4ccccc4)c4ccccc4)cc3)ccc21` gave a photoluminescence quantum yield of 0.89.
`c1ccc(-c2ccc(-c3ccccc3)s2)cc1` showed a photoluminescence quantum yield (in C1CCOC1) of 0.07.
Where the note is “in CO”, `C#CCOc1ccc(/C=C/C2=[N+]3C(=C(c4ccc(N(CC)CC)cc4)c4c(C)cc(C)n4[B-]3(F)F)C(C)=C2)cc1` gave a photoluminescence quantum yield of 0.84.
Consider `c1ccc(-c2ccc(-c3ccc(-c4ccccc4)cc3)cc2)cc1`, for which, where the note is “in C1COCCO1”, the photoluminescence quantum yield came out at 0.71.
Consider `F[B-]1(F)n2c(c3ccccc3c2-c2ccccc2)N=C2c3ccccc3C(c3ccccc3)=[N+]21`, for which the photoluminescence quantum yield (in ClCCl) came to 0.14.
Compound `COc1cc2c(cc1OC)C1=C[C@H](c3ccc(Cl)cc3)C3(C(C#N)=C(C#N)N1CC2)c1cc(Cl)ccc1-c1ccc(Cl)cc13` yielded a photoluminescence quantum yield (in ClCCl) of 0.00065.
Regarding `O=C1c2ccccc2-c2ccc(N3CCOCC3)c3cccc1c23`, the photoluminescence quantum yield (in C1CCOC1) was found to be 0.15; the photoluminescence quantum yield (in CCCCCC) amounted to 0.33; the photoluminescence quantum yield (in CCO) was found to be 0.12; the photoluminescence quantum yield (in CCOC(C)=O) was determined as 0.3; the photoluminescence quantum yield (in CN(C)C=O) was 0.14; the photoluminescence quantum yield (in CO) was 0.12. In addition, the photoluminescence quantum yield by setting is: (in Cc1ccccc1) 0.64; (in ClC(Cl)(Cl)Cl) 0.18; (in ClC(Cl)Cl) 0.53; (in ClCCl) 0.53; (in c1ccccc1) 0.68.
Compound `c1ccc(-c2nc(-c3ccc(N4CCCC4)cc3)cc(-c3ccc4ccccc4c3)n2)cc1` showed a photoluminescence quantum yield (in ClC(Cl)Cl) of 0.19.
Compound `COc1ccc(-c2cnc3nn4ccccc4c3n2)cc1` came in with a photoluminescence quantum yield (in C1CCOC1) of 0.83.
The compound `CCCCCCn1c2ccccc2c2cc(-c3ccc(-c4cc(-c5ccccn5)nc(-c5ccccn5)c4)cc3)ccc21` showed a photoluminescence quantum yield (in ClCCl) of 0.73.
On to `CCOC(=O)c1cc(C(=O)OCC)c2c(C)ccc(O)c2n1`, for which the photoluminescence quantum yield (in CCO) is 0.26.
For `c1ccc(-c2nc3c(c4c2-c2ccccc2CC4)-c2ccccc2CC3)cc1`, the photoluminescence quantum yield reads like this: (in C1CCOC1) 0.009; (in CC#N) 0.001; (in CCCCCC) 0.001; (in CCOC(C)=O) 0.03; (in CO) 0.002; (in CS(C)=O) 0.003. In addition, the photoluminescence quantum yield turned out to be 0.002 (in Cc1ccccc1) and 0.01 (in ClCCl).
In the case of `CC(=O)Nc1ccc2c3cccc4cccc(c5cccc1c52)c43`, the photoluminescence quantum yield by setting is: (in C1COCCO1) 0.56; (in CC#N) 0.45; (in CCCCOCCCC) 0.46; (in CCOC(C)=O) 0.5.
On to `COc1ccc(C(=Cc2ccc(/C=C/c3ccc(C#N)cc3)cc2)c2ccc(OC)cc2)cc1`, for which, for the setting “in C1CCOC1”, the photoluminescence quantum yield was determined as 0.03.
The compound `CCOC(=O)c1ccc(C2=Cc3ccccc3P2(=O)c2ccccc2)cc1` (stereo unspecified) displayed a photoluminescence quantum yield (in ClCCl) of 0.82.
`CC(C)(C)c1cc(-c2cc3nc4c5ccc(N6c7ccccc7Oc7ccccc76)cc5c5cc(N6c7ccccc7Oc7ccccc76)ccc5c4nc3cc2-c2cc(C(C)(C)C)cc(C(C)(C)C)c2)cc(C(C)(C)C)c1`: the photoluminescence quantum yield (in c1ccc2c(c1)c1ccccc1n2-c1ccc(-c2ccc(-n3c4ccccc4c4ccccc43)cc2)cc1) turned out to be 0.83.
Turning to `CC(C)c1cccc(C(C)C)c1N1C(=O)c2ccc3cc4c(cc5ccc6c7c(ccc4c57)C(=O)N(c4c(C(C)C)cccc4C(C)C)C6=O)c4ccc(c2c34)C1=O`, the photoluminescence quantum yield (in ClCCl) is 0.53.
Still for that read-out and setting: to `c1ccc(-n2nc(-c3ccc(-c4ccc5c(c4)C(c4ccccc4)(c4ccccc4)c4ccccc4-5)cc3)nc2-c2ccccn2)cc1` belongs 0.158.
